# Activity calls are given as the source filed them. The calls are words filed in the database; no cut-off is given here.
# Key:
# HOP-92 = experiment: Growth inhibition of human HOP92 cells after 48 hrs by SRB staining method; type: functional; settings: HOP-92, 48 h; for TGI: read-out: pTGI (converted)
# Thymidylate synthase [1] = biological target: Thymidylate synthase (Escherichia coli, UniProt C3SWJ7)
# Thymidylate synthase [2] = biological target: Thymidylate synthase (Homo sapiens, UniProt P04818); experiment: Inhibition of human thymidylate synthase at 10 uM
# [3] = biological target: Thymidylate synthase (Escherichia coli) (UniProt C3SWJ7); experiment: Inhibition of Escherichia coli thymidylate synthase at 10 uM
# Chain of Thymidylate synthase (Escherichia coli) (C3SWJ7 1-264): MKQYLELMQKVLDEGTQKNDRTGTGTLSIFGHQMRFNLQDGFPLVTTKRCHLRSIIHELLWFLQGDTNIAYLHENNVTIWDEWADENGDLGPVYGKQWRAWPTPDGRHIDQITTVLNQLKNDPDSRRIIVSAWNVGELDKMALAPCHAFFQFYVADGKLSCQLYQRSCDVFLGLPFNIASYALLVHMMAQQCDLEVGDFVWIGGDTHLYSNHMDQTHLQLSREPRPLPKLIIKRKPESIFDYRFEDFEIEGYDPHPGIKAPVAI
# Chain of Thymidylate synthase (Escherichia coli, UniProt C3SWJ7) (C3SWJ7 whole entry): as the sequence (C3SWJ7 1-264) above
# Chain of Thymidylate synthase (Homo sapiens, UniProt P04818) (P04818 2-313 limits assumed): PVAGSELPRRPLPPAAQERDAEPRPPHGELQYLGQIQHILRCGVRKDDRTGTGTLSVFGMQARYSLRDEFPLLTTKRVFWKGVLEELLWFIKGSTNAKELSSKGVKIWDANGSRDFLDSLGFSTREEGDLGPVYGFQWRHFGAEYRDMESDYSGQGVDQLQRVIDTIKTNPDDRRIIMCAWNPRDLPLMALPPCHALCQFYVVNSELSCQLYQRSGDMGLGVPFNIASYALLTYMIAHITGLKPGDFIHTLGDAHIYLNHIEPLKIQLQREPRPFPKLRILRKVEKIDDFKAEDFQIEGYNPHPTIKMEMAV
SMILES,LC50 (HOP-92) [µM],GI50 (HOP-92) [µM],TGI (HOP-92) [µM],Ki (Thymidylate synthase [1]) [µM],Activity (Thymidylate synthase [2]),Activity [3]
COc1cc(Nc2nc3cc(N)cc(N)c3nc2-c2ccccc2)cc(OC)c1,> 100,,,,,
COc1ccc(Nc2nc3cc(N)cc(N)c3nc2-c2ccccc2)cc1,> 100,20,52.5,,,
Nc1cc(N)c2nc(-c3ccccc3)c(Nc3ccc(Cl)c(Cl)c3)nc2c1,,,,3,,
COc1ccc(Nc2nc3cc(N)cc(N)c3nc2-c2ccccc2)cc1OC,,,,,inactive,inactive
Nc1cc(N)c2nc(-c3ccccc3)c(Nc3ccc(F)cc3)nc2c1,,13.2,43.7,70,inactive,
CCOC(=O)CCC(NC(=O)c1ccc(Nc2nc3cc(N)cc(N)c3nc2-c2ccccc2)cc1)C(=O)OCC (stereo not drawn),81.3,10.7,29.5,,,inactive
COc1cc(Nc2nc3cc(N)cc(N)c3nc2-c2ccccc2)cc(OC)c1OC,91.2,2.75,20.9,,,

# Source: ChEMBL document CHEMBL1149774, “Synthesis of N-(5,7-diamino-3-phenyl-quinoxalin-2-yl)-3,4,5-substituted anilines and N-[4[(5,7-diamino-3-phenylquinoxalin-2-yl)amino]benzoyl]-l-glutamic acid diethyl ester: evaluation of in vitro anti-cancer and anti-folate activities” (Eur J Med Chem, 2008)
